Measurements from US20260294865A1, “AUTOPHAGY ACTIVATOR AND AUTOPHAGY ACTIVATION COMPOSITION” (MARUZEN PHARMACEUTICALS CO., LTD., priority 2023, published 2026).

Tested on: HeLa cells stably expressing tfLC3
Assay: tfLC3 test (autophagy activity, GFP/RFP ratio)
Format: cell-based
Details: for Ratio with respect to DMSO (GFP/RFP value, negative control taken as 1): final concentration 10 μM, 24 hours, HeLa cells stably expressing tfLC3, negative control 0.1% DMSO = 1, lower value = autophagy activation; for autophagy activation effect (in words): tfLC3 test, GFP/RFP ratio lower than negative control
Source text: An autophagy activation effect was examined by a tfLC3 test using the compound represented by the structural formula (1) (manufactured by INDOFINE Chemical Company) and the compound represented by the structural formula (2) (manufactured by INDOFINE Chemical Company) as test samples.
The tfLC3 test is a test performed by using tfLC3, in which LC3 that is an autophagosome marker protein is tandemly tagged with fluorescent proteins mRFP (RFP: Red Fluorescent Protein) and EGFP (GFP: Green Fluorescent Protein) (Autophagy 2007; 3:452-460. (PubMed: 17534139) DOI: 10.4161/auto. 4451).
In a cell undergoing autophagy, LC3 dots increase. However, LC3 is accumulated in a cell even if degradation due to autophagy is inhibited. Therefore, an increase of the LC3 dots alone cannot be used to conclude that autophagy is enhanced. Therefore, enhancement and inhibition of autophagy can be distinguished by examining the maturation process of autophagosomes (process of fusion of autophagosomes with lysosomes, or degradation in autolysosomes after fusion).
A fluorescent signal (green) of GFP of the tfLC3 is attenuated in the environment within the lysosomes, but RFP (red) is stable in the same environment. By using this characteristic of tfLC3 that fluorescence becomes red due to quenching of GFP in the process of maturing autophagosomes into autolysosomes, a GFP/RFP ratio within a cell is analyzed in the tfLC3 test to determine whether or not a test sample added to a medium has an autophagy activation capability.
HeLa cells stably expressing tfLC3 were seeded in a 96-well plate (Perkin Elmer #6055302 Cell Carrier 96 Ultra Black 96 well, Clear Bottom, with Lid), and the HeLA cells were cultured in a growth medium [Growth medium (DMEM (Sigma D6546) supplemented with 10% FBS and 4 mM L-glutamine] in a 5% CO2 incubator for 24 hours. Then, the medium was replaced with a medium to which a test sample was added (see Table 1 for the final concentration of the test sample), followed by culturing for 24 hours.
As a negative control, cells cultured in a medium including 0.1% dimethyl sulfoxide (DMSO) were used.
The GFP/RFP value (may be referred to as a “ratio with respect to DMSO” hereinafter) measured in the cells cultured in the test sample-added medium was calculated by determining the GFP/RFP value measured in the negative control as 1.
A test sample that has a lower value for the GFP/RFP ratio than the value for the GFP/RFP ratio of the negative control can be determined as having an autophagy activation effect.

| SMILES | Ratio with respect to DMSO (GFP/RFP value, negative control taken as 1) | autophagy activation effect (in words) |
| --- | --- | --- |
| COc1cc(OC)c2c(=O)cc(-c3ccc(OC)c(OC)c3)oc2c1 [2-(3,4-dimethoxyphenyl)-5,7-dimethoxy-4H-chromen-4-one] | 0.847 | had the autophagy activation effect |
| COc1ccc2c(=O)c(OC)c(-c3cc(OC)c(OC)c(OC)c3)oc2c1 [3,7-dimethoxy-2-(3,4,5-trimethoxyphenyl)-4H-chromen-4-one] | 0.848 | had the autophagy activation effect |
